tested on: Myo5 SH3 domain; test: SPOT analysis of cellulose-bound peptides (WISE), Myo5 SH3 domain (Dataset S4); type: binding, Saccharomyces cerevisiae; conditions: SPOT analysis of cellulose-bound 14-mer yeast proteome peptides, Myo5 SH3 domain; normalized value; mean where the peptide was synthesized more than once

Row | Sequence | The normalized value in BLU units
1 | GLIGMNDPPRPNVK | 115.5 BLU
2 | TGKPRKTPRPPFPF | 1192.8 BLU
3 | DLSVHTSPHGPIGS | 186.1 BLU
4 | KPKVLFHPHWPLYI | 195.5 BLU
5 | FHDPKFIPNKPYRQ | 299.7 BLU
6 | SWAVLPVPGGPVMY | 69.2 BLU
7 | SKVNKVAPDHPFIQ | 72.1 BLU
8 | ALDNFTLPGTPGFP | 180.7 BLU
9 | HLDSFSPPFSPSTT | 120.7 BLU
10 | KFTDMLDPEKPNVI | 262.4 BLU
11 | LPKLKSNPSVPHLH | 193.1 BLU
12 | GEFFHCSPNIPHYA | 271.2 BLU
13 | TPINFVFPNLPLEH | 81.8 BLU
14 | INNTRLSPNSPTPP | 139.6 BLU
15 | PPPDFNDPTAPLSS | 152.8 BLU
16 | TAPIHSTPKPPPND | 77.7 BLU
17 | EFSPHSTPVTPRRL | 114.0 BLU
18 | MFNLLQKPEQPHQN | 204.0 BLU

Row | Sequence | The normalized value in BLU units
19 | KPKMLPIPSKPTLF | 1355.0 BLU
20 | GPSQFAPPPPPPGV | 20435.9 BLU
21 | TSCTKEKPTPPTTT | 118.4 BLU
22 | VLTKMNAPQKPEDI | 296.2 BLU
23 | FARTLKIPNEPSPG | 145.7 BLU
24 | MEEPFIWPEEPRPD | 79.7 BLU
25 | FLTVYILPKNPFRV | 1470.4 BLU
26 | AEFDLTDPEVPSFY | 165.8 BLU
27 | KELLLIPPGFPTKN | 122.9 BLU
28 | SPSQYQYPSQPALS | 65.2 BLU
29 | LASPFHDPILPRRT | 288.3 BLU
30 | KPSLWEAPQNPPYS | 152.4 BLU
31 | AARILANPDHPFSR | 165.5 BLU
32 | NKIPKHLPADPIFS | 277.9 BLU
33 | HEYNLALPKFPILF | 146.8 BLU
34 | SLISKRNPCYPYGI | 483.2 BLU
35 | ELYYLNDPKYPGTK | 0.0 BLU
36 | KFFKHLYPAIPILD | 217.0 BLU

same assay, conditions: SPOT analysis of cellulose-bound peptides probed with Myo5 SH3 domain; normalized value

Row | Sequence | The normalized value in BLU units (SPOT analysis, Myo5 SH3)
37 | GLHDYTSPASPKQT | 129.7 BLU
38 | SLLIHSLPRKPLLM | 314.4 BLU
39 | DLSYYLRPIKPFNT | 160.7 BLU
40 | MFTYFQEPPFPDLL | 239.3 BLU
41 | SLAVYNIPLFPDDP | 91.7 BLU
42 | DFRLHYYPKDPSNV | 77.7 BLU
43 | FLALFSDPARPFLT | 451.5 BLU
44 | KLPQLPPPPPPPPP | 54143.7 BLU
45 | PPEGFPEPLNPTNF | 86.0 BLU
46 | HPHPHPHPHTPTHT | 238.0 BLU
47 | GWEPFSLPKDPKVV | 75.9 BLU
48 | GLRWYRSPIYPYLY | 468.1 BLU
49 | PEVLMDQPYSPLSD | 78.7 BLU
50 | LEDALHVPTNPEIL | 191.1 BLU
51 | GWPVYNYPMQPTTE | 167.9 BLU
52 | ALKEMTHPIKPSAQ | 261.0 BLU
53 | FFTIWFIPLVPVFW | 396.7 BLU
54 | PPPPLPPPLFPSSS | 38483.6 BLU
55 | IERVWNGPVEPSDE | 180.2 BLU
56 | AELLLGQPMFPGES | 172.2 BLU
57 | KLNCLQIPHLPPSV | 349.8 BLU
58 | KEQNWKHPLLPLLK | 321.0 BLU
59 | HEKLYHNPSLPAQS | 78.1 BLU
60 | KLWDLSKPSKPLKE | 233.1 BLU
61 | HPSGLNSPKLPPLP | 456.8 BLU
62 | TEGKYAPPSQPSMA | 222.8 BLU
63 | PFSSMKEPFIPQSS | 410.6 BLU
64 | ALGFYRAPGSPAPA | 100.8 BLU
65 | NLLSLENPVVPSHY | 75.6 BLU
66 | ILCAYNSPKVPADI | 81.4 BLU

same assay, conditions: SPOT analysis of membrane-bound peptides, Myo5 SH3 domain; normalized value (see methods)

Row | Sequence | The normalized value in BLU units
67 | CLRARNGPVPPVHI | 207.8 BLU
68 | MKPQKIAPKFPGTV | 415.8 BLU
69 | SYMDKIYPDLPNDK | 83.0 BLU
70 | VDSFKYEPLAPGND | 134.0 BLU
71 | GTGRRRSPSTPIMP | 921.0 BLU
72 | TMKNKPKPTPPSPP | 909.8 BLU
73 | TKKRKLGPKAPNPL | 693.8 BLU
74 | PQQNRPLPQLPNRN | 186.1 BLU
75 | KKKKKNGPGAPQGY | 328.8 BLU
76 | CRHLKLVPSTPMDI | 361.8 BLU
77 | NELVKRFPGHPPLR | 300.5 BLU
78 | QSINRSIPSAPYGA | 208.2 BLU
79 | NTVEKLQPGLPVII | 279.7 BLU
80 | SKDKKTKPTPPPKP | 179.5 BLU
81 | FRPHRLAPSAPATK | 1405.4 BLU
82 | VEMKRKKPVRPVDI | 472.2 BLU
83 | HEASKCFPKAPQAS | 288.6 BLU
84 | LNATKISPSAPSKD | 114.4 BLU
85 | IDKSKLSPRFPELK | 233.0 BLU

Row | Sequence | The normalized value in BLU units
86 | SQKKKALPKQPKAS | 492.9 BLU
87 | LSYLKDLPFVPFLF | 213.0 BLU
88 | LLVTKERPRFPEDD | 33.7 BLU
89 | EYFPREYPKDPVSE | 272.2 BLU
90 | RRRTRLRPPTPLSQ | 1508.6 BLU
91 | NGKDKSRPPRPPPK | 2621.2 BLU
92 | KRRSKSLPTTPGIR | 592.0 BLU
93 | DDNVRPSPISPSIN | 153.4 BLU
94 | PCKKKSKPKVPAKN | 579.8 BLU
95 | EDLVKKPPFIPSPT | 755.9 BLU
96 | QFALKNTPITPGSC | 111.3 BLU
97 | SANGKFIPSRPAPK | 6758.2 BLU
98 | AKLRKFHPPEPYKG | 119.3 BLU
99 | HICDKMNPASPQYF | 159.1 BLU
100 | RTFFKLPPNLPEAE | 2608.2 BLU
101 | VCHSKYIPLKPIQD | 298.3 BLU
102 | SMAMRPIPPLPTES | 1326.7 BLU
103 | RLVSKYRPNCPIIL | 286.2 BLU
104 | EFTTREGPHQPIGN | 79.8 BLU

same assay, conditions: SPOT analysis of membrane-synthesized peptides probed with Myo5 SH3 domain; normalized value

Row | Sequence | The normalized value in BLU units (SPOT analysis, Myo5 SH3)
105 | HFPSRSQPSDPKLQ | 257.5 BLU
106 | WENFKEEPGEPLSR | 96.8 BLU
107 | KQRIRKIPGIPLMS | 621.8 BLU
108 | LDVRRIYPKGPLLV | 231.6 BLU
109 | VKKEKKPPKIPKKV | 534.4 BLU
110 | AKVNKCPPDHPYIQ | 164.3 BLU
111 | GSYIKRTPKIPEKD | 206.2 BLU
112 | QVYEKTIPLFPPEI | 153.0 BLU
113 | LASDKGLPMIPAFV | 79.9 BLU
114 | LLPTKLIPSIPGGK | 172.0 BLU
115 | PPNYKQQPNCPSSN | 147.5 BLU
116 | KTRNKPKPLWPQVK | 261.8 BLU
117 | YSYLRLLPWWPSLA | 187.6 BLU
118 | AERAKKAPSLPEGQ | 389.2 BLU
119 | NSTVRRKPHSPNKK | 955.5 BLU
120 | TTKHKAPPPPPPTA | 1684.9 BLU
121 | PKSPKAYPKLPDIQ | 357.2 BLU
122 | LSPAKARPSFPHND | 212.8 BLU
123 | AKDYRFNPAIPLRI | 304.4 BLU
124 | AKIDKVSPEDPWVL | 248.0 BLU

Row | Sequence | The normalized value in BLU units (SPOT analysis, Myo5 SH3)
125 | MLFMKGSPSEPKCG | 250.7 BLU
126 | ILKNRMNPEKPYEL | 321.6 BLU
127 | PPLPRAPPVPPATF | 35914.7 BLU
128 | VLFMKGTPEFPKCG | 212.8 BLU
129 | STNAKKDPFPPPKD | 198.5 BLU
130 | QPPDRNLPSHPSSN | 155.8 BLU
131 | KPAGRPIPPAPTHY | 189.4 BLU
132 | TGKFRYMPFSPAGT | 555.5 BLU
133 | NSVIRGCPGLPDTL | 150.8 BLU
134 | SILRKSSPEEPFMS | 144.2 BLU
135 | LNFKRLLPRDPSEK | 553.7 BLU
136 | IAGQRTFPEDPNYP | 171.7 BLU
137 | GDHPKGPPPPPPPD | 40130.9 BLU
138 | NLKTKSHPEVPRLD | 362.8 BLU
139 | DIGSKKLPTGPSKK | 219.8 BLU
140 | EFPGKKCPRLPHRN | 367.5 BLU
141 | TKTDKSYPMCPVDA | 150.0 BLU
142 | SEMHRAAPETPRSI | 322.4 BLU
143 | EFLRKHSPKAPATG | 412.8 BLU
